Reference: US20200017495A1, “NOVEL HETEROCYCLIC COMPOUNDS AND THEIR USE IN PREVENTING OR TREATING BACTERIAL INFECTIONS” (priority 2017, published 2020)

System: Escherichia coli (ECO) isolates
Test: MIC of compounds alone and combined with antibacterials, broth microdilution (CLSI)
Type: cell-based
How it was run: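 Log-phase isolates were inoculated at a final 5.10^5 CFU/mL in cation-adjusted Mueller-Hinton broth and incubated 16-20 h at 35° C in ambient air. MIC was the lowest concentration preventing visible growth; for combinations, the antibacterial MIC was read at each compound concentration.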

C=CC1=C(C(=O)O)N2C(=O)[C@@H](NC(=O)/C(=N\OCC(=O)O)c3csc(N)n3)[C@H]2SC1 [FIX, Cefixime]
>128 µg/mL: MIC (strain ECO UFR39, genotype CTX-M-15, NDM-1) | MIC (strain ECO UFR41, genotype TEM-1, CTX-M-15, CMY-2, OXA-1, NDM-4) | MIC (strain ECO UFR45, genotype TEM-1, CMY-4, OXA-1, OXA-48, VIM-1) | MIC (strain ECO UFR52, genotype TEM-1, SHV-12, IMP-8) | MIC (strain ECO UFR74, genotype SHV-1, DHA-1) | MIC (strain ECO UFR177, genotype TEM-1, CTX-M-15, OXA-1, OXA-2, NDM-1, RmtC, antibiotic alone) | MIC ATB in combination (strain ECO UFR177, with CLA @ 4 μg/mL) | MIC (strain ECO UFR178, genotype TEM-1, CTX-M-15, OXA-9, NDM-1, antibiotic alone) | MIC ATB in combination (strain ECO UFR178, with CLA @ 4 μg/mL) | MIC (strain ECO UFR179, genotype TEM-1, SHV-12, CTX-M-15, NDM-1, antibiotic alone) | MIC ATB in combination (strain ECO UFR179, with CLA @ 4 μg/mL) | MIC (strain ECO UFR180, genotype TEM-1, CMY-30, OXA-1, NDM-1, antibiotic alone) | MIC ATB in combination (strain ECO UFR180, with CLA @ 4 μg/mL) | MIC (strain ECO UFR181, genotype TEM-1, CTX-M-15, NDM-5, antibiotic alone) | MIC ATB in combination (strain ECO UFR181, with AF3 @ 8 μg/mL) | MIC ATB in combination (strain ECO UFR181, with CLA @ 4 μg/mL) | MIC (strain ECO UFR182, genotype CTX-M-15, OXA-1, NDM-6, antibiotic alone) | MIC ATB in combination (strain ECO UFR182, with CLA @ 4 μg/mL) | MIC (strain ECO UFR183, genotype CTX-M-15, OXA-1, NDM-7, antibiotic alone) | MIC ATB in combination (strain ECO UFR183, with AF2 @ 8 μg/mL) | MIC ATB in combination (strain ECO UFR183, with AF3 @ 8 μg/mL) | MIC ATB in combination (strain ECO UFR183, with CLA @ 4 μg/mL) | MIC (strain ECO UFR184, genotype CTX-M-15, CMY-4, OXA-1, OXA-204) | MIC (strain ECO UFR185, genotype OXA-48) | MIC (strain ECO UFR189, genotype TEM-1, CTX-M-15, OXA-48) | MIC (strain ECO UFR191, genotype TEM-1, CTX-M-24, OXA-48) | MIC (strain ECO UFR204, genotype TEM-1, CMY-4, OXA-48, VIM-1, antibiotic alone) | MIC ATB in combination (strain ECO UFR204, with CLA @ 4 μg/mL) | MIC (strain ECO UFR205, genotype CTX-M-15, VIM-4, antibiotic alone) | MIC ATB in combination (strain ECO UFR205, with CLA @ 4 μg/mL) | MIC (strain ECO UFR206, genotype TEM-1, CTX-M-15, OXA-1, VIM-4, antibiotic alone) | MIC ATB in combination (strain ECO UFR206, with AF2 @ 8 μg/mL) | MIC ATB in combination (strain ECO UFR206, with AF3 @ 8 μg/mL) | MIC ATB in combination (strain ECO UFR206, with CLA @ 4 μg/mL) | MIC (strain ECO UFR207, genotype CTX-M-15) | MIC (strain ECO UFR208, genotype SHV-12) | MIC (strain ECO UFR211, genotype TEM-24) | MIC (strain ECO UFR212, genotype CMY-2) | MIC (strain ECO UFR218, genotype TEM-1, SHV-1, CTX-M-15) | MIC (strain ECO UFR252GO, genotype VIM-2, antibiotic alone) | MIC ATB in combination (strain ECO UFR252GO, with CLA @ 4 μg/mL) | MIC (strain ECO UFR255, genotype NDM-1, antibiotic alone) | MIC ATB in combination (strain ECO UFR255, with CLA @ 4 μg/mL)
<0.25 µg/mL: MIC ATB in combination (strain ECO UFR177, with AF3 @ 8 μg/mL) | MIC ATB in combination (strain ECO UFR178, with AF2 @ 8 μg/mL) | MIC ATB in combination (strain ECO UFR178, with AF3 @ 8 μg/mL) | MIC ATB in combination (strain ECO UFR179, with AF2 @ 8 μg/mL) | MIC ATB in combination (strain ECO UFR179, with AF3 @ 8 μg/mL) | MIC ATB in combination (strain ECO UFR180, with AF2 @ 8 μg/mL) | MIC ATB in combination (strain ECO UFR180, with AF3 @ 8 μg/mL) | MIC ATB in combination (strain ECO UFR182, with AF2 @ 8 μg/mL) | MIC ATB in combination (strain ECO UFR182, with AF3 @ 8 μg/mL) | MIC ATB in combination (strain ECO UFR186, with AF2 @ 8 μg/mL) | MIC ATB in combination (strain ECO UFR186, with AF3 @ 8 μg/mL) | MIC ATB in combination (strain ECO UFR189, with AF2 @ 8 μg/mL) | MIC ATB in combination (strain ECO UFR189, with AF3 @ 8 μg/mL) | MIC ATB in combination (strain ECO UFR190, with AF2 @ 8 μg/mL) | MIC ATB in combination (strain ECO UFR190, with AF3 @ 8 μg/mL) | MIC ATB in combination (strain ECO UFR191, with AF2 @ 8 μg/mL) | MIC ATB in combination (strain ECO UFR191, with AF3 @ 8 μg/mL) | MIC ATB in combination (strain ECO UFR204, with AF2 @ 8 μg/mL) | MIC ATB in combination (strain ECO UFR204, with AF3 @ 8 μg/mL) | MIC ATB in combination (strain ECO UFR252GO, with AF2 @ 8 μg/mL) | MIC ATB in combination (strain ECO UFR252GO, with AF3 @ 8 μg/mL) | MIC ATB in combination (strain ECO UFR255, with AF2 @ 8 μg/mL) | MIC ATB in combination (strain ECO UFR255, with AF3 @ 8 μg/mL)
2 µg/mL: MIC (strain ECO UFR86, genotype ompC-, ompF-) | MIC ATB in combination (strain ECO UFR187, with CLA @ 4 μg/mL)
<=0.25 μg/mL: MIC ATB in combination (strain ECO UFR177, with AF2 @ 8 μg/mL) | MIC ATB in combination (strain ECO UFR181, with AF2 @ 8 μg/mL) | MIC ATB in combination (strain ECO UFR187, with AF2 @ 8 μg/mL) | MIC ATB in combination (strain ECO UFR205, with AF2 @ 8 μg/mL) | MIC ATB in combination (strain ECO UFR205, with AF3 @ 8 μg/mL)
64 µg/mL: MIC (strain ECO UFR175, genotype TEM-1, KPC-2, OXA-9) | MIC (strain ECO UFR176, genotype KPC-3, OXA-9*) | MIC (strain ECO UFR190, genotype CTX-M-24, OXA-48)
32 µg/mL: MIC (strain ECO UFR61O, compound alone) | MIC (strain ECO UFR61O, genotype TEM-1, KPC-2) | MIC (strain ECO UFR186, genotype TEM-1, CTX-M-14, OXA-48) | MIC (strain ECO UFR187, genotype CTX-M-15, OXA-48) | MIC (strain ECO UFR210, genotype SHV-12)
8 µg/mL: MIC (strain ECO UFR174, genotype TEM-1, KPC-2, OXA-1) | MIC ATB in combination (strain ECO UFR186, with CLA @ 4 μg/mL) | MIC ATB in combination (strain ECO UFR190, with CLA @ 4 μg/mL)
1024 µg/mL: MIC (strain ECO UFR209, compound alone) | MIC (strain ECO UFR209, genotype TEM-1, CTX-M-15)
4 µg/mL: MIC ATB in combination (strain ECO UFR189, with CLA @ 4 μg/mL) | MIC ATB in combination (strain ECO UFR191, with CLA @ 4 μg/mL)
0.5 µg/mL: MIC ATB in combination (strain ECO UFR187, with AF3 @ 8 μg/mL)
128 µg/mL: MIC (strain ECO UFR32, genotype TEM-1, VEB-1, OXA-10) | MIC (strain ECO UFR62, genotype TEM-1, CTX-M-9, KPC-2)
